Columns and labels:
acyl-CoA synthetases = assay: In vitro activity assay of Schizochytrium FAS-KO cell free homogenate with Triacsin C (HIP extraction, normal phase TLC); assay type: biochemical; conditions: Triacsin C 0, 25, 100 or 200 uM, 10 minutes, then ATP and Mg+2, additional 20 minutes; effect at higher concentrations
Description: An example of a protocol for preparation of cell free homogenates (CFH) from the cell wall deficient strains of Schizochytrium is as follows. Cells were grown in A50-3 medium and then diluted into M2B medium. The media used for growing the KO strains were supplemented with the appropriate fatty acid. Cells were grown to an OD600 nm of >˜2.5 and <˜5 in the M2B media. Cells in 50 mL of culture medium were collected by centrifugation (table top centrifuge—˜1200 rpm×4 minutes) in 50 mL plastic tubes. The supernatant was decanted and the cells resuspended 5 mL Buffer A (100 mM Phosphate pH 7.2, 10% (w/v) glycerol, 1 mM EDTA and 2 mM DTT) and centrifuged as before. The supernatant was discarded and the cells resuspended in ice cold 5 mL Buffer A. The suspension was sonicated (Ultrasonic Processor Model GE130 with microtip, Pulser at 2 seconds, ˜1 Watt power setting) with tube on ice for 1.5 minutes. The sample was checked by microscopy to ensure that all of the cells were broken. The CFH was aliquoted in 200 uL portions into 0.5 mL PCR tubes with caps and frozen by dropping into liquid N2. Samples were stored at −74° C. until needed.
An example of a protocol for in vitro activity assays of both FAS and PUFA synthase activities is as follows. […]

yeast = assay: Fatty acid profile (GC of FAMEs) of yeast strains grown without or with cerulenin (FAS inhibition); assay type: cell-based, Saccharomyces cerevisiae
Text: The present inventors tested the effects of cerulenin on fatty acid profiles of the strains of yeast described in Example 8 as a model of the concept of reduction of FAS activity. The yeast described in Example 9, which also contained an acyl CoA-synthetase, were additionally tested in this system, to determine whether the effects of the two strategies would additively or synergistically increase PUFA production.
Initial experiments indicated the maximum effect (i.e., as an increase in PUFAs as a percentage of the total fatty acid profile) was obtained at a concentration of 4 uM cerulenin. The cerulenin was added 4 hours after transfer to the galactose induction medium. Cells were harvested 19 hr after transfer to induction medium, freeze dried, FAMES prepared and analyzed by GC.
The yeast strains tested were: • Strain 5.5 contained the PUFA synthase genes (sOrfA, sOrfB, OrfC and Het I), as described in Example 8 above; and • Strain 5.6 contained the PUFA synthase gene set of Strain 5.5, plus the ScACoAS-1 (SEQ ID NO:82), as described in Example 9 above.
Referring to Table 2, “0 Cer” indicates cerulenin was not added, and “4 uM Cer” indicates the media was made to 4 uM cerulenin 4 hours after transfer to the induction medium). Each strain was evaluated for fatty acid production in the presence and absence of the cerulenin, to evaluate the effect of the inhibition of the FAS pathway on PUFA production. […] The values are given as a percentage of the total fatty acids detected. DHA and DPAn-6, which are the products of the Schizochytrium PUFA PKS system, were the only PUFAs present in the profiles. FIGS. 9 and 10 illustrate the amount of DHA (FIG. 9) or DHA and DPAn-6 (FIG. 10; white bars are DHA; black bars are DHA+DPAn-6) produced by the yeast, as a percentage of total FAME.

Schizochytrium = assay: Knock out of the DAGAT gene in Schizochytrium, lipid profile; assay type: cell-based; conditions: inactivation of the DAGAT gene in Schizochytrium

For `CCC/C=C/C/C=C/C=C/C=N/NN=O` [Triacsin C], the “loss of radiolabel from the FFA band” value (acyl-CoA synthetases) was “blocked the loss of radiolabel from the FFA band”.

With `C/C=C/C/C=C/CCC(=O)[C@H]1O[C@H]1C(N)=O` [cerulenin] the “DHA level, of total fatty acids” value (yeast; cells expressing both the PUFA synthase and ScACoAS-1 genes grown in 4 uM cerulenin (4.1% without)) was 8.2%, the DHA level (yeast; cells with just the PUFA synthase system grown in 4 uM cerulenin (1.2% without)) was 3.7% and the “concentration giving the maximum effect (increase in PUFAs as a percentage of the total fatty acid profile)” value (yeast; initial experiments) was 4 µM.

B1: DAGAT: Schizochytrium diacylglycerol acyltransferase, SEQ ID NO:100/101 (protein, listed as Schizochytrium sp.)
chain: MERPQAQASPARSEARRRRGDRSKGFADEDGETSVNTPNGMQTPYSTSMGSVSSYSSSGDYAMSEAEGSEVDPADDRMGDSIGSKPSSSSVTGRRRLTQEERDYFLRLEKEWREEDAWADQPGSWYSMLAWMPVLIGLRVFNVLLSIAFWPVSFVARVFFGKKIHTVSFWDVPLSRRKQTAVVLLFVMLLPMVVVVYSWTLVLLLFPLTTFPTLCYMVWIIYVDKSPETGSRRPFLRYWKMWRHFANYFPLRLIRTTPLDSRRKYVFCYHPHGIISLGAFGNFATDSTGFSRKFPGIDLRVLTLALNFYCPLLREFLLYLGLCSAAKKSCNQILQRGPGSAIMLVVGGAAESLDSQPGTYRLTLGRKGFVRVALDNGADLVPVLAFGENDVFDTVYLPPNSWARNVQEFVRKKLGFATPIFSGRGIFQYNMGLMPHRRPIIVVVGKPIKMPKIPDELKGRALSTTAEGVALVDKYHEKYVKALRELWNLYKERWAVHRQGSLLIQK
For B1, the “reduction in TAG” value (Schizochytrium) was roughly 90% and the “reduction in mg FAME/gm biomass” value (Schizochytrium) was roughly 80%.
